Experimental data as given in US11505797B2, “Gene knockout of variant NRF2 for treatment of cancer” (Christiana Care Health Services, Inc., priority 2019, dated 2022).
Entries after “also recorded” stand apart in the source; their conditions may differ.

What was measured:
wildtype NRF2 sequence = test: In vitro cleavage reaction, wildtype NRF2 amplicons; type: biochemical, human; conditions: A549 or H1703 parental amplicons, 0.5-5 pmol RNP, gel electrophoresis
Protocol: (§1) As proof of concept, an in vitro cleavage reaction was conducted to assess the level of discrimination using the R34G guide RNA in a ribonucleoprotein complex (RNP). The in vitro cleavage reaction encompasses complexing target specific-guide RNA with Cas9 protein to form a ribonucleoprotein (RNP). The RNP is incubated with DNA of interest (100 ng) and the reaction and cleavage products are visualized by gel electrophoresis. For this experiment, wildtype and R34G-mutated NRF2 PCR products (901 bp) from an NRF2 expression plasmid (FIG. 21) were incubated with R34G-targeting RNP complex (1 μM) and cleavage products were visualized by gel electrophoresis, shown in FIG. 22.
Once the sequences were verified, genomic DNA from each cell line was used to amplify exon 2 of NRF2. The PCR products (530 bp) from each cell line were then used in in vitro cleavage reactions under various parameters to test specificity and fidelity of the R34G-targeting RNP. For these cleavage reactions, expected cleavage products would appear at 385 and 145 bp as indicated by the red lines along the ladder, with uncut product appearing at 530 bp. FIG. 24 depicts the gel image from an in vitro cleavage reaction using wildtype NRF2 sequence from parental A549 cells and R34G-mutated NRF2 sequence from the A549 R34G-6 cells. […]

[1] = tested on: R34G-mutated NRF2 sequence; test: In vitro cleavage reaction, R34G-mutated NRF2 amplicons; type: biochemical, human; conditions: A549 R34G-6 amplicon, 0.5-5 pmol RNP, gel electrophoresis
Protocol: as §1
Once the sequences were verified, genomic DNA from each cell line was used to amplify exon 2 of NRF2. The PCR products (530 bp) from each cell line were then used in in vitro cleavage reactions under various parameters to test specificity and fidelity of the R34G-targeting RNP. For these cleavage reactions, expected cleavage products would appear at 385 and 145 bp as indicated by the red lines along the ladder, with uncut product appearing at 530 bp. FIG. 24 depicts the gel image from an in vitro cleavage reaction using wildtype NRF2 sequence from parental A549 cells and R34G-mutated NRF2 sequence from the A549 R34G-6 cells. An increasing concentration (0.5-5 pmol) of R34G-targeting RNP was used to determine the threshold and fidelity of the sequence. […] Uncut product (top band, 530 bp) can still be seen in lanes 7-10, which corresponds to the heterozygosity of the R34G mutation in the A549 R34G-6 cell line. Therefore, the wildtype NRF2 allele in the A549 R34G-6 cell line acts as an internal negative control.
Another in vitro cleavage reaction was conducted to assess the cleavage efficiency of the wildtype NRF2 sequence to ensure the R34G-targeting RNP was, in fact, not cleaving the wildtype NRF2 sequence because of the lack of the R34G mutation. A guide RNA with a cut site 29 bp upstream (labeled Neh2 RNP) from the R34G RNP cut site was selected and used as a positive cleavage control. […] Lanes 1-8 were reactions using wildtype NRF2 sequence while lanes 9-16 were reactions using R34G-mutated NRF2 sequence. In lanes 2-4 and 10-12, PCR products were incubated with increasing concentrations (1, 3 & 5 pmol) of RNP targeting the beginning of exon 2 (Neh2 RNP). The Neh2 guide RNA sequence is: 5′ […] 3′ (SEQ ID NO:13) which is a native CRISPR site and used as the positive control for cleavage for these reactions. […] In lanes 6-8 and 14-16, PCR products were incubated with increasing concentrations (1, 3 & 5 pmol) of R34G-targeting RNP. […] This further reinforces the specificity of the R34G-targeting RNP only recognizing the target DNA in the presence of the R34G mutation in exon 2 of NRF2. […]

wild type A549 cells = test: MTS cell proliferation assay, wild type A549 cells; type: cell-based, human
Protocol: (§2) Cell viability was evaluated using the CellTiter 96 Aqueous Non-Radioactive Cell Proliferation Assay (Promega, Madison, Wis.). A549 cell lines were plated at 2×10^3 cells per well and allowed to culture for 24 hours. The cell media was then aspirated, the cells washed with PBS, then exposed to the MTS reagent for 3 hours. After 3 hours of MTS bio-reduction by proliferating cells, the formazan product's absorbance was measured using a 450 nm filter on an Infinite 2000 PRO microplate reader (Tecan, Mannadorf, Switzerland). Cell viability after drug exposure was evaluated using the CellTiter 96 Aqueous Non-Radioactive Cell Proliferation Assay. A549 cell lines were plated at 2×10^3 cells per well and allowed to culture for 24 hours. The cells were then treated with cisplatin, carboplatin, or a combination of cisplatin and vinorelbine for three days. The cell media was then aspirated, the cells washed with PBS, then exposed to the MTS reagent for 3 hours. After 3 hours of MTS bio-reduction by proliferating cells, the formazan product's absorbance was measured using a 450 nm filter on an Infinite 2000 PRO microplate reader.

[2] = tested on: NRF2 knockout A549 cells (2-11); test: MTS cell proliferation assay, NRF2 knockout A549 cells (2-11); type: cell-based, human
Protocol: as §2

wild type A549 tumors = test: Xenograft mouse model, wild type A549 tumors; type: in vivo, athymic nude mice; conditions: for tumor growth over 16 days: tail vein day 0, 3, 6, 9, cisplatin 2 mg/kg, cisplatin 5 mg/kg + vinorelbine 5 mg/kg, carboplatin 25 mg/kg
Protocol: (§3) The human xenograft model was established using methodology reported previously. Kellar et al., Biomed Res. Int. […] Female athymic nude mice (Envigo, 5-6 weeks old) were used in this study. Approximately 5×10^6 cells (wild type A549 or homozygous knockout (clonal expansion 2-11)) suspended in PBS with 20% Matrigel were injected subcutaneously into right flank of each mouse. Tumor volume was measured three times a week with a digital caliper once palpable, and calculated using the formula, tumor size=ab^2/2, where ‘a’ is the larger and ‘b’ is the smaller of the two dimensions. When tumors grew up to a mean volume of around 100 mm^3, A549 tumor bearing mice or A549-2-11 tumor bearing mice were randomly divided into 7 groups (N=5 for each group) respectively and subject to dose/regimen-finding study. […] Tumor volume and body weight was closely monitored over time. After 16 days, the animals were sacrificed, with tumor removed, weighed and processed for molecular analysis. Mice were euthanized. The data were expressed as mean±SD. Student's t-test and one-way or two-way ANOVA was used to assess the significance of difference. A P value<0.05 was considered significant.
(§4) A549 xenografts were resected on day 16, snap frozen in liquid nitrogen and stored in −80° C. until usage. All immunofluorescence staining was performed as previously described. Wang et al., Investig. Opthalmology Vis. […] Briefly, tumors were embedded in Optimum Cutting Temperature (Tissue Tek, Torrance, Calif., USA) and 16-μm-thick sections were obtained with a Leica CM3050 cryostat (Leica Microsystems, Buffalo Grove, Ill., USA), and mounted on slides. Slides were fixed and incubated with blocking buffer for 1 hour at room temperature. […] Sections were washed in PBS, then mounted with SlowFade Gold antifade mountant with DAPI (Invitrogen, Carlsbad, Calif., USA). Images were obtained with a Zeiss Observer.Z1 microscope (Carl Zeiss, Inc., Gottingen, Germany). The TUNEL assay was conducted with In Situ Cell Death Detection Kit, Fluorescein (Roche, Base, Switzerland), following the manufacturer's instructions. […]

[3] = tested on: NRF2 knockout A549 (2-11) tumors; test: Xenograft mouse model, NRF2 knockout A549 (2-11) tumors; type: in vivo, athymic nude mice; conditions: cisplatin 2 mg/kg
Protocol: as §3, §4

[4] = tested on: A549 Neh2 KO clones 1-17, 2-16, 2-23; test: MTS assay of A549 Neh2 KO clones treated with cisplatin; type: cell-based, human; conditions: 1, 2, 3, 5, 10 uM cisplatin
From the text: The lung adenocarcinoma-derived cell line, A549, was used transfected with CRISPR/Cas9 designed to target exon 2 of NRF2 to create individual clones with random indel patterns. A total of three clones, 1-17, 2-16, and 2-23, were isolated and expanded. All three clones were collected for genomic DNA isolation and sanger sequencing to confirm the indels present. The DECODR program was used to deconvolute the sanger sequencing of each clone. The A549 cell line is polyploid and therefore, these clones contain 3 alleles of the NRF2 gene. Clone 1-17 contains −2, −2, −13 base pair deletions. Clone 2-16 contains a −1 base pair deletion across all alleles. Clone 2-23 contains two wildtype alleles and a −2 base pair deletion. A cell proliferation assay was used to assess the functionality of NRF2 after CRISPR targeting in combination with cisplatin treatment. […] Absorbance values for each clone and concentration were normalized by dividing the absorbance by the absorbance of each control well (0 μM). Normalized values for each clone at each concentration were then averaged across and standard error of the mean was calculated. […]
Several A549 NRF2 knockout clones were created and used for dose curves with Cisplatin and Carboplatin (0-10 uM concentration). […] These genomic profiles were analyzed by TIDE and DECODR. […]

Row | Compound | cleavage of wildtype NRF2 amplicon (530 bp) (wildtype NRF2 sequence) | cleavage of R34G-mutated NRF2 amplicon (530 bp) [1] | cisplatin concentration at which proliferation is adversely affected (wild type A549 cells; wild type A549, 72 hours) [µM] | chemosensitivity (MTS cell proliferation) (wild type A549 cells; wild type A549, increasing dosages, 72 hours) | cisplatin concentration with loss of proliferation ([2]; 2-11 knockout A549, 72 hours) [µM] | chemosensitivity (MTS cell proliferation) ([2]; 2-11 knockout A549, increasing dosages, 72 hours) | Ki67 staining of xenograft tumors (wild type A549 tumors; cisplatin 2 mg/kg versus saline, day 16) | tumor growth over 16 days (wild type A549 tumors) | tumor growth over 16 days (wild type A549 tumors; listed as Cisplatin) | Ki67 staining of xenograft tumors ([3]; day 16) | tumor growth over 16 days ([3]; tail vein day 0, 3, 6, 9, cisplatin 5 mg/kg + vinorelbine 5 mg/kg, carboplatin 25 mg/kg) | sensitivity to cisplatin (MTS), clones 1-17 and 2-16 [4] | sensitivity to cisplatin (MTS), clone 2-23 ([4]; two wildtype alleles and -2 bp deletion)
1 | 5′ TGGATTTGATTGACATACTTTGG 3′ [Neh2 RNP] | can be seen in both wildtype and R34G-mutated NRF2 sequences | can be seen in both wildtype and R34G-mutated NRF2 sequences |  |  |  |  |  |  |  |  |  |  | 
2 | N.N.[Cl][Pt][Cl] [cisplatin] |  |  | ≥ 5 | resistant to high dosages of Cisplatin | ≥ 1 | heightened sensitivity | no difference in Ki67 levels | proliferate aggressively | not inhibited by the drug | substantially lower | proliferation of the implanted cells is arrested, and the tumor size is maintained at the same level; also recorded: smallest tumors; also recorded: significant reduction in tumor cell proliferation | relatively the same trend of sensitivity | even higher resistance than the wildtype cells
